{"source": "patent EP4454710A1", "about": "“BISPECIFIC FUSION PROTEINS WITH IMMUNOSUPPRESSIVE ACTIVITY” (Universitat de Barcelona, priority 2023, dated 2024)", "format_in_all_cases": "cell-based, human", "conditions_in_all_cases": "Tacrolimus 10 ng/mL (Table 3); 7 days MLR; mean +/- SD", "key": {"CD3^+CD4^+PD-1^+ cells": {"system": "CD3^+CD4^+PD-1^+ cells", "experiment": "In vitro T cell proliferation assay (allogenic PBMC co-culture, MLR), CD3+CD4+PD-1+ cells", "source_text": "(§1) Frozen PBMC were thawed in RPMI medium (Gibco, Thermofisher scientific, Waltham, Massachusetts, USA) with 20% fetal bovine serum (Cytiva, Little Chalfont, Buckinghamshire, United Kingdom). 200 000 PBMC from an individual, stained with CelltraceTM Violet Dye (Thermofisher scientific), were cocultured with 200 000 PBMC from another individual stained with CelltraceTM Farr Red Dye (Thermofisher Scientific) in RPMI medium supplemented with 10 % FBS and penicilline-streptomycine (Cultek, Madrid, Spain) for 7 days. […] Cells were analyzed using a LSRFortessaTM flow cytometer with DIVA (BD Biosciences) and FlowJo Softwares (Tree Star, Ashland, OR, USA). For each condition, we assessed the proportion of PBMC with low Violet or Farr Red dye staining among CD3^+ cells, C3^+CD4^+ cells and CD3^+CD4^+PD-1^+ cells and proceeded to normalization to the MLR without drug condition."}, "CD3^+CD4^+ cells": {"system": "CD3^+CD4^+ cells", "experiment": "In vitro T cell proliferation assay (allogenic PBMC co-culture, MLR), CD3+CD4+ cells", "source_text": "as §1"}, "CD3^+ cells": {"system": "CD3^+ cells", "experiment": "In vitro T cell proliferation assay (allogenic PBMC co-culture, MLR), CD3+ cells", "source_text": "as §1"}}, "data": [{"smiles": "C=CC[C@@H]1/C=C(\\C)C[C@H](C)C[C@H](OC)[C@H]2O[C@@](O)(C(=O)C(=O)N3CCCC[C@H]3C(=O)O[C@H](/C(C)=C/[C@@H]3CC[C@@H](O)[C@H](OC)C3)[C@H](C)[C@@H](O)CC1=O)[C@H](C)C[C@@H]2OC", "note": "[Tacrolimus]", "values": [{"measurement": "Proliferation of CD3^+CD4^+PD-1^+ cells (% of proliferation compared with the condition without drug)", "setting": "CD3^+CD4^+PD-1^+ cells", "value": "25.65 +/-20.39%"}, {"measurement": "Proliferation of CD3^+CD4^+ cells (% of proliferation compared with the condition without drug)", "setting": "CD3^+CD4^+ cells", "value": "23.34 +/- 20.03%"}, {"measurement": "Proliferation of CD3^+ cells (% of proliferation compared with the condition without drug)", "setting": "CD3^+ cells", "value": "19.35 +/- 14.78%"}]}]}
